Assay results: patent US11566047B2, “Peptide or pharmaceutically acceptable salt thereof, or prodrug thereof” (TOKYO UNIVERSITY OF PHARMACY & LIFE SCIENCES, priority 2016, dated 2023)
Blank lines part the entries; values can stand above or below the compound they belong to. Square brackets hold non-standard residues; d marks the D form. Ends that are not written are not given here. Peptide text beside a SMILES is read from it. * marks the point of attachment. Propanoyl(3,3-Ph2) = O=C(CC(c1ccccc1)c1ccccc1)*; 2Nal = N[C@@H](Cc1ccc2ccccc2c1)C(=O)O; Chg = N[C@H](C(=O)O)C1CCCCC1; R111 = not defined here

Columns and labels:
mdx mice = assay: Influence on serum creatine kinase level of mdx mice; format: in vivo; details: mdx male mice; 40 μL of 0.75 mM intramuscular into calf muscles of both legs on day 0 and day 14
Procedure: Evaluation was performed by the following method in order to check the effect of nPDM-55/E31R prepared in Synthesis Example 36 to a serum creatine kinase (CK) value in mdx mice. Incidentally, 3d prepared in Synthesis Example 75 was used as Comparative Example.
nPDM-55/E31R and 3d were dissolved in saline to become 0.75 mM. 40 μL of nPDM-55/E31R was intramuscularly administered into the calf muscles of both legs of anesthetized mdx mice aged 5 weeks (all mice were males, purchased from CLEA Japan, Inc.). After 2 weeks, the same amount of nPDM-55/E31R was administered to the same site again. Serum samples were collected immediately before administration of nPDM-55/E31R and 3d (day 0, day 14) and further also collected after 4 weeks (day 42). […] From those results, it was shown that nPDM-55/E31R has an effect of continually maintaining the CK level in blood to be low as compared to 3d.

myostatin = target: T1, myostatin (Homo sapiens, UniProt O14793); assay: cell-based; details: for remaining activity at 0.3 µM: HEK293, read-out: luciferase activity (relative; myostatin without test sample = 100%)
T1 sequence (O14793 267-375): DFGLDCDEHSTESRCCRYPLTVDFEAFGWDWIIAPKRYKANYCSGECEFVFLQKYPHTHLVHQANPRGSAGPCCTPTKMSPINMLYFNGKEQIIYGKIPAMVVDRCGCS
Procedure: Human embryo kidney cell HEK293 cells were cultured in a 5% (v/v) CO2 incubator set to 37° C. using DMEM (NACALAI TESQUE, INC.) including a 10% (v/v) fetal bovine serum (FBS) added with a 1% (v/v) non-essential amino acid (Wako Pure Chemical Corporation).
(2) In Vitro Reporter Assay
HEK293 cells were seeded on a D-Lys-corted 96-well transparent plate (Thermo Fisher Scientific Inc.) in an amount of 2.0×10^4 cells (100 μL DMEM+10% (v/v) FBS) per well and were cultured for 24 hours.
The cells were cultured at 37° C. for 24 hours, and after the cell culture solution was replaced with serum-free DMEM, the cells were cultured for 8 hours. Incidentally, pGL4.48 [luc2P/SBE/Hygro] includes firefly luciferase reporter gene luc2P under Smad binding region (SBE) control, and when a signaling pathway by the myostatin is activated, intracellular Smad forms a complex, and the complex is bonded to SBE to promote transcription of luc2P.
The peptide as a test sample was suspended as a stock solution using DMSO to become 10 mM and stored at −30° C. Before 1 hour from addition to the culture medium, the peptide and a myostatin (Merck Millipore Corp.) were suspended with serum-free DMEM and left to stand still at room temperature (25° C.) for 20 minutes. Subsequently, a peptide with an arbitrary final concentration (0.3 to […]) and 8 ng/mL of myostatin were added to the culture medium, and then culturing was performed for 4 hours. After culturing for 4 hours, the culture solution was removed by an aspirator and the cells were washed with 1×PBS. Thereafter, Passive Lysis buffer (Promega Corporation) was added in an amount of 50 μL per well to dissolve the cells. The dissolving solution was subjected to centrifugal separation at 4500 rpm for 6 minutes under the condition of 4° C. After 20 μL of supernatant subjected to centrifugal separation was transferred to a white 96-well plate (Costar), 50 μL of Luciferase Assay Reagent (Promega Corporation) was then added, emission was detected by Luminoskan Ascent (Thermo Fisher Scientific Inc.), and a firefly luciferase activity was measured. Further, after 50 μL of Stop & Glo Buffer (Promega Corporation) was added, emission was detected by Luminoskan Ascent, and a Renilla luciferase activity was measured to be regarded as an internal control.

[1] = system: calf muscles of mdx mice and C57BL/6 mice; assay: Influence on calf muscles of mdx mice and C57BL/6 mice (cross-sectional areas of muscle fibers); format: in vivo
Procedure: Evaluation was performed by the following method in order to check the muscle mass increasing effect in vivo of nPDM-55/E31R prepared in Synthesis Example 36.
nPDM-55/E31R was dissolved in saline to become 0.75 mM. 40 μL of nPDM-55/E31R was intramuscularly administered into the calf muscles of both legs of anesthetized mdx mice and C57BL/6 mice aged 5 weeks (all mice were males, purchased from CLEA Japan, Inc.) (40 μL of saline was intramuscularly administered into the calf muscles of both legs of control mice). After 2 weeks, the same amount of nPDM-55/E31R was administered to the same site again. After further 4 weeks, the mice were subjected to necropsy, the calf muscles were excised from the both legs and transverse frozen sections (6 μm) were formed using cryostat. Regarding three sections stained with Hematoxylin-Eosin and randomly selected, cross-sectional areas of muscle fibers (200 fibers) were analyzed by a fluorescence microscope BZX700 (KEYENCE CORPORATION).

remaining activity at 0.3 µM (myostatin): ≤ 60%
Compound: CC[C@H](C)[C@H](NC(=O)[C@H](CCC(N)=O)NC(=O)[C@@H](NC(=O)[C@H](CCCCN)NC(=O)[C@@H](NC(=O)[C@H](Cc1c[nH]c2ccccc12)NC(=O)[C@H](CCCNC(=N)N)NC(=O)[C@@H](NC(=O)[C@H](Cc1ccc(O)cc1)NC(=O)[C@@H](N)Cc1c[nH]c2ccccc12)[C@@H](C)CC)[C@@H](C)CC)[C@@H](C)CC)C(=O)N[C@@H](Cc1c[nH]c2ccccc12)C(=O)N[C@@H](CO)C(=O)N[C@@H](CCCCN)C(=O)N[C@H](C(=O)N[C@@H](CCCNC(=N)N)C(=O)N[C@@H](CC(C)C)C(N)=O)C1CCCCC1 [nPDM-65, WYIRWIKIQIWSK-Chg-RL-NH2] (H-WYIRWIKIQIWSK[Chg]RL-NH2)

remaining activity at 0.3 µM (myostatin): ≤ 60%
Compound: CC[C@H](C)[C@H](NC(=O)[C@H](CCC(N)=O)NC(=O)[C@@H](NC(=O)[C@H](CCCCN)NC(=O)[C@@H](NC(=O)[C@H](Cc1c[nH]c2ccccc12)NC(=O)[C@H](CCCNC(=N)N)NC(=O)[C@@H](NC(=O)[C@H](Cc1ccc(O)cc1)NC(=O)[C@@H](N)Cc1c[nH]c2ccccc12)[C@@H](C)CC)[C@@H](C)CC)C1CCCCC1)C(=O)N[C@@H](Cc1c[nH]c2ccccc12)C(=O)N[C@@H](CO)C(=O)N[C@@H](CCCCN)C(=O)N[C@H](C(=O)N[C@@H](CCCNC(=N)N)C(=O)N[C@@H](CC(C)C)C(N)=O)C1CCCCC1 [nPDM-66, WYIRWIK-Chg-QIWSK-Chg-RL-NH2] (H-WYIRWIK[Chg]QIWSK[Chg]RL-NH2)

remaining activity at 0.3 µM (myostatin): ≤ 60%
Compound: CC[C@H](C)[C@H](NC(=O)[C@H](CCC(N)=O)NC(=O)[C@@H](NC(=O)[C@H](CCCNC(=N)N)NC(=O)[C@@H](NC(=O)[C@@H](Cc1c[nH]c2ccccc12)NC(=O)[C@H](CCCNC(=N)N)NC(=O)[C@@H](NC(=O)[C@H](Cc1ccc(O)cc1)NC(=O)[C@@H](N)Cc1c[nH]c2ccccc12)[C@@H](C)CC)[C@@H](C)CC)C1CCCCC1)C(=O)N[C@@H](Cc1c[nH]c2ccccc12)C(=O)N[C@H](CO)C(=O)N[C@@H](CCCNC(=N)N)C(=O)N[C@H](C(=O)N1CCC[C@H]1C(=O)N[C@@H](CC(C)C)C(N)=O)C1CCCCC1 [nPDM-82, WYIRwIR-Chg-QIWsR-Chg-PL-NH2] (H-WYIR[dW]IR[Chg]QIW[dS]R[Chg]PL-NH2)

remaining activity at 0.3 µM (myostatin): ≤ 60%
IC50 (myostatin; read-out: IC50 value, myostatin inhibitory activity, concentration range of 0.016 to 2 μM): 131 nM
Compound: CC[C@H](C)[C@H](NC(=O)[C@H](CCC(N)=O)NC(=O)[C@@H](NC(=O)[C@H](CCCCN)NC(=O)[C@@H](NC(=O)[C@@H](Cc1c[nH]c2ccccc12)NC(=O)[C@H](CCCNC(=N)N)NC(=O)[C@@H](NC(=O)[C@H](Cc1ccc(O)cc1)NC(=O)[C@@H](N)Cc1c[nH]c2ccccc12)[C@@H](C)CC)[C@@H](C)CC)C1CCCCC1)C(=O)N[C@@H](Cc1c[nH]c2ccccc12)C(=O)N[C@@H](CO)C(=O)N[C@@H](CCCCN)C(=O)N[C@H](C(=O)N[C@@H](CCCNC(=N)N)C(=O)N[C@@H](CC(C)C)C(N)=O)C1CCCCC1 [nPDM-86, WYIRwIK-Chg-QIWSK-Chg-RL-NH2] (H-WYIR[dW]IK[Chg]QIWSK[Chg]RL-NH2)
inhibitory activity relative to 3d (myostatin; comparison of IC50 values): approximately two times higher inhibitory activity

Further lines, the compound ahead of its results:

Compound: CC[C@H](C)[C@H](NC(=O)[C@H](CCC(N)=O)NC(=O)[C@@H](NC(=O)[C@H](CCCCN)NC(=O)[C@@H](NC(=O)[C@H](Cc1c[nH]c2ccccc12)NC(=O)[C@H](CCCNC(=N)N)NC(=O)[C@@H](NC(=O)[C@H](Cc1ccc(O)cc1)NC(=O)[C@@H](N)Cc1c[nH]c2ccccc12)[C@@H](C)CC)[C@@H](C)CC)[C@@H](C)CC)C(=O)N[C@@H](Cc1c[nH]c2ccccc12)C(=O)N[C@@H](CO)C(=O)N[C@@H](CCCCN)C(=O)N[C@@H](CC(C)C)C(=O)N[C@@H](CCCNC(=N)N)C(=O)N[C@@H](CC(C)C)C(N)=O [nPDM-55/E31R, WYIRWIKIQIWSKLRL-NH2] (H-WYIRWIKIQIWSKLRL-NH2)
serum creatine kinase (CK) level on day 14 versus day 0 (mdx mice): clearly lower value
serum creatine kinase (CK) level on day 42 (mdx mice): clearly lower value
remaining activity at 0.3 µM (myostatin): ≤ 60%
cross-sectional areas of muscle fibers of calf muscles ([1]; mdx and C57BL/6 male mice, 40 μL of 0.75 mM intramuscular into both legs, again after 2 weeks, after further 4 weeks, vs saline mice): increased
nature of the obtained muscular hypertrophy (analysis images) ([1]; mdx and C57BL/6 mice, Hematoxylin-Eosin stained sections): not inflammatory

Compound: CC[C@H](C)[C@H](NC(=O)[C@H](CCC(N)=O)NC(=O)[C@@H](NC(=O)[C@H](CCCCN)NC(=O)[C@@H](NC(=O)[C@H](Cc1ccc2ccccc2c1)NC(=O)[C@H](CCCNC(=N)N)NC(=O)[C@@H](NC(=O)[C@H](Cc1ccc(O)cc1)NC(=O)[C@@H](N)Cc1ccc(O)cc1)[C@@H](C)CC)[C@@H](C)CC)[C@@H](C)CC)C(=O)N[C@@H](Cc1c[nH]c2ccccc12)C(=O)N[C@@H](CO)C(=O)N[C@@H](CCCCN)C(=O)N[C@@H](CC(C)C)C(=O)N[C@@H](CCCNC(=N)N)C(=O)N[C@@H](CC(C)C)C(N)=O [nPDM-69, YYIR-Naa-IKIQIWSKLRL-NH2] (H-YYIR[2Nal]IKIQIWSKLRL-NH2)
remaining activity at 0.3 µM (myostatin): ≤ 60%

Compound: CC[C@H](C)[C@H](NC(=O)[C@H](CCC(N)=O)NC(=O)[C@@H](NC(=O)[C@H](CCCNC(=N)N)NC(=O)[C@@H](NC(=O)[C@@H](Cc1c[nH]c2ccccc12)NC(=O)[C@H](CCCNC(=N)N)NC(=O)[C@@H](NC(=O)[C@H](Cc1ccc(O)cc1)NC(=O)[C@@H](N)Cc1c[nH]c2ccccc12)[C@@H](C)CC)[C@@H](C)CC)C1CCCCC1)C(=O)N[C@@H](Cc1c[nH]c2ccccc12)C(=O)N[C@@H](CO)C(=O)N[C@@H](CCCNC(=N)N)C(=O)N[C@H](C(=O)N1CCC[C@H]1C(=O)N[C@@H](CC(C)C)C(N)=O)C1CCCCC1 [nPDM-80, WYIRwIR-Chg-QIWSR-Chg-PL-NH2] (H-WYIR[dW]IR[Chg]QIWSR[Chg]PL-NH2)
remaining activity at 0.3 µM (myostatin): ≤ 60%

Compound: CC[C@H](C)[C@H](NC(=O)[C@H](Cc1ccc(O)cc1)NC(=O)CC(c1ccccc1)c1ccccc1)C(=O)N[C@@H](CCCNC(=N)N)C(=O)N[C@@H](Cc1c[nH]c2ccccc12)C(=O)N[C@H](C(=O)N[C@@H](CCCNC(=N)N)C(=O)N[C@H](C(=O)N[C@@H](CCC(N)=O)C(=O)N[C@H](C(=O)N[C@@H](Cc1c[nH]c2ccccc12)C(=O)N[C@@H](CO)C(=O)N[C@@H](CCCNC(=N)N)C(=O)N[C@H](C(=O)N1CCC[C@H]1C(=O)N[C@@H](CC(C)C)C(N)=O)C1CCCCC1)[C@@H](C)CC)C1CCCCC1)[C@@H](C)CC [nPDM-85, R^114-YIRWIR-Chg-QIWSR-Chg-PL-NH2] ({Propanoyl(3,3-Ph2)}-YIRWIR[Chg]QIWSR[Chg]PL-NH2)
remaining activity at 0.3 µM (myostatin): ≤ 60%

Compound: R^111-WYIEWIKIQIISKLRL-NH2 (R111-WYIEWIKIQIISKLRL-NH2; reading uncertain; also: printed as R^111-WYIEWIKIQIISKLRL-NH2) [PDM-27]
myostatin inhibitory activity (concentration-dependent evaluation) (myostatin; at a concentration of 1 μM or more, 8 ng/mL myostatin, HEK293): significant myostatin inhibitory activity

Compound: SRIEAIKIQILSKLRL-NH2 (listed as Mus musculus) [mMPS(28-43), reference compound]
myostatin inhibitory activity (myostatin; final concentration of 1 μM): a high myostatin inhibitory activity was not recognized
myostatin inhibitory activity (myostatin; final concentration of 10 μM): the myostatin inhibitory activity was not recognized

Compound: WYIEAIKIQILSKLRL-NH2 [d-14, reference compound]
myostatin inhibitory activity (myostatin; final concentration of 1 μM): a high myostatin inhibitory activity was not recognized
